# Measurements reported in PubChem BioAssay (NCI).
# “And” between values parts separate entries of the source, which are not always exact repeats. Identical values can stand only once.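 Growth conditions: 96-well plates. Treatment: test compound, 48 hours, 5 concentrations. Analysis: linear interpolation between bracketing concentrations; unreached endpoints set to highest concentration. The concentration for 50% growth inhibition is given as GI50. TGI: total growth inhibition.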 *1 amine or outer side, *2 acyl side, *3 side chain or, on linkers, in order; H or OH if unused. Where a SMILES comes first, the peptide text is derived from it. Bridges are numbered along the chain shown (N, C = ends). [ ]: non-standard residue; d: D form. ξ: configuration not given here. X4 = CCC(C)C(N[*:1])C(O)CC(=O)O[C@H](C(=O)C(C)C(=O)[*:2])C(C)C; NMeY = CN[C@@H](Cc1ccc(O)cc1)C(=O)O; ξNMeL = CNC(CC(C)C)C(=O)O; ξT = CC(O)C(N)C(=O)O
# Key:
# Test in all cases: NCI tumour cell line growth inhibition, 48 h
# SW-620 colon = tested on: SW-620 colon
# 786-0 renal = tested on: 786-0 renal
# SNB-75 CNS = tested on: SNB-75 CNS
# OVCAR-8 ovarian = tested on: OVCAR-8 ovarian
# HCC-2998 colon = tested on: HCC-2998 colon
# UACC-62 melanoma = tested on: UACC-62 melanoma
# NCI-H23 lung = tested on: NCI-H23 lung
# HT29 colon = tested on: HT29 colon
# CAKI-1 renal = tested on: CAKI-1 renal
# OVCAR-4 ovarian = tested on: OVCAR-4 ovarian
# OVCAR-3 ovarian = tested on: OVCAR-3 ovarian
# IGROV1 ovarian = tested on: IGROV1 ovarian
# SK-OV-3 ovarian = tested on: SK-OV-3 ovarian
# MOLT-4 leukemia = tested on: MOLT-4 leukemia
# A498 renal = tested on: A498 renal
# SR leukemia = tested on: SR leukemia
# A549 NSCLC = tested on: A549 NSCLC
# SF-295 CNS = tested on: SF-295 CNS
# TK-10 renal = tested on: TK-10 renal
# UO-31 renal = tested on: UO-31 renal
# HL-60(TB) leukemia = tested on: HL-60(TB) leukemia
# UACC-257 melanoma = tested on: UACC-257 melanoma
# HOP-92 NSCLC = tested on: HOP-92 NSCLC
# SF-268 CNS = tested on: SF-268 CNS
# SK-MEL-28 melanoma = tested on: SK-MEL-28 melanoma
# CCRF-CEM leukemia = tested on: CCRF-CEM leukemia
# M14 melanoma = tested on: M14 melanoma
# OVCAR-5 ovarian = tested on: OVCAR-5 ovarian
# LOX IMVI melanoma = tested on: LOX IMVI melanoma
# NCI-H522 lung = tested on: NCI-H522 lung
# MDA-MB-435 = tested on: MDA-MB-435
# SNB-19 CNS = tested on: SNB-19 CNS
# NCI/ADR-RES ovarian = tested on: NCI/ADR-RES ovarian
# ACHN renal = tested on: ACHN renal
# PC-3 prostate = tested on: PC-3 prostate
# MALME-3M melanoma = tested on: MALME-3M melanoma
# SF-539 CNS = tested on: SF-539 CNS
# U251 CNS = tested on: U251 CNS
# SK-MEL-5 melanoma = tested on: SK-MEL-5 melanoma
# HCT-15 colon = tested on: HCT-15 colon
# MDA-N = tested on: MDA-N
# BT-549 breast = tested on: BT-549 breast
# HOP-62 NSCLC = tested on: HOP-62 NSCLC
# EKVX NSCLC = tested on: EKVX NSCLC
structure (smiles),measurement,setting,value
CCC(C)C1NC(=O)C(NC(=O)C(CC(C)C)N(C)C(=O)[C@@H]2CCCN2)C(C)OC(=O)[C@H](Cc2ccc(OC)cc2)N(C)C(=O)[C@@H]2CCCN2C(=O)[C@H](CC(C)C)NC(=O)C(C)C(=O)[C@H](C(C)C)OC(=O)CC1O (stereo partly specified) (H-P[ξNMeL][ξT][X4]LP[NMeY](Me); ester 3-C),TGI,SW-620 colon,80.2 nM and 23.2 nM
same,TGI,786-0 renal,11.5 nM and 17.4 nM
same,TGI,SNB-75 CNS,8.13 nM and 19.1 nM
same,TGI,OVCAR-8 ovarian,24.3 nM and 38.7 nM
same,TGI,HCC-2998 colon,10.4 nM and 10.8 nM
same,TGI,UACC-62 melanoma,1.47 nM
same,TGI,NCI-H23 lung,2.18 nM
same,TGI,HT29 colon,15.1 nM and 12.7 nM
same,TGI,CAKI-1 renal,364 nM and 130 nM
same,TGI,OVCAR-4 ovarian,3.69 nM and 18.5 nM
same,TGI,OVCAR-3 ovarian,6.86 nM
same,TGI,IGROV1 ovarian,10.7 nM
same,TGI,SK-OV-3 ovarian,17.7 nM
same,TGI,MOLT-4 leukemia,5.07 nM
same,TGI,A498 renal,37.2 nM and 150 nM
same,TGI,SR leukemia,7450 nM
same,TGI,A549 NSCLC,24.6 nM and 28.9 nM
same,TGI,SF-295 CNS,14.9 nM
same,TGI,TK-10 renal,27 nM and 141 nM
same,GI50,UO-31 renal,25.3 nM
same,TGI,UO-31 renal,118 nM and 444 nM
same,TGI,HL-60(TB) leukemia,27.9 nM and 21.3 nM
same,TGI,UACC-257 melanoma,8.14 nM and 46.5 nM
same,TGI,HOP-92 NSCLC,18.7 nM
same,TGI,SF-268 CNS,3.14 nM and 19.5 nM
same,TGI,SK-MEL-28 melanoma,1.79 nM
same,TGI,CCRF-CEM leukemia,55.7 nM
same,TGI,M14 melanoma,8.65 nM
same,TGI,OVCAR-5 ovarian,79.4 nM
same,TGI,LOX IMVI melanoma,2.06 nM and 10.1 nM
same,TGI,NCI-H522 lung,6.53 nM
same,TGI,MDA-MB-435,3.2 nM
same,TGI,SNB-19 CNS,39.8 nM
same,GI50,NCI/ADR-RES ovarian,233 nM
same,TGI,NCI/ADR-RES ovarian,780 nM and 3740 nM
same,TGI,ACHN renal,35.2 nM and 156 nM
same,TGI,PC-3 prostate,11.5 nM
same,TGI,MALME-3M melanoma,8.47 nM
same,TGI,SF-539 CNS,2.08 nM
same,TGI,U251 CNS,11.4 nM
same,TGI,SK-MEL-5 melanoma,7.48 nM
same,TGI,HCT-15 colon,224 nM and 146 nM
same,TGI,MDA-N,10.7 nM
same,TGI,BT-549 breast,10.4 nM
same,TGI,HOP-62 NSCLC,7.82 nM
same,TGI,EKVX NSCLC,47.4 nM
